Test results as given in patent publication US4668799A, “Anti-hepatitis and anti-cirrhotic 1,3-dithiol-2-ylidene derivatives, and pharmaceutical compositions therefor” (Banyu Pharmaceutical Co., Ltd., priority 1985, dated 1987).
Where two headings read alike, the source gives them in different places.

Key:
[1] = test system: liver (acute liver injury induced by carbon tetrachloride); assay: Protective Effect on Acute Liver Injury Induced by Carbon Tetrachloride; assay type: in vivo, mice (ddY); conditions: mice; for inhibition in vivo at 50 mg/kg: Mus musculus, po, 50 mg/kg p.o. 6 h before CCl4, CCl4 alone = 0, normal = 100; for Liver Damage Index: 50 mg/kg p.o. 6 h before CCl4 0.05 ml/kg p.o., visual score 0 normal, 2 slightly, 4 distinctly, 6 remarkably injured, CCl4 alone 6.0
Method: A test compound was dissolved or suspended in olive oil and administered orally at a dose of 50 mg/kg to mice (ddY, mice, .male., 23±2 g, n=5). After 6 hours, carbon tetrachloride (0.05 ml/kg) was administered orally, 24 Hours after the administration of carbon tetrachloride, BSP (sodium sulfobromophthalene; 75 mg/kg) was administered intravenously. Thirty minutes later, the cardiac blood was collected, and GPT (glutamic-pyruvic transaminase) activity and the retention rate of BSP in the plasma were measured. Further, the liver injury immediately after the collection of the blood was visually observed and evaluated by the following score for liver damage index.

mice = assay: Acute Toxicity Test; assay type: in vivo; conditions: oral, one week after administration
Method: (§1) A test compound was dissolved or suspended in olive oil and administered orally to mice (ddY mice, .male., 23±2 g, n=5). The acute toxicity value (LD50) was determined from the mortality one week after the administration.

Acute Toxicity Test = assay type: in vivo; conditions: mouse, in vivo; mice, oral, mortality one week after administration
Method: as §1

liver damages = conditions: in vivo; cited from earlier work
liver protein synthesis = assay: Effect on Protein Synthesis in Liver; assay type: in vivo, rats (Wister strain); conditions: rats, 100 mg/kg p.o. for 3 days
Method: Compound 6 was dissolved in olive oil and orally administered successively for 3 days at a dose of 100 mg/kg to rats (Wister strain, .male., 180±10 g, 6 week-old, n=5). 24 Hours after the administration of the test compound was completed, the animals were sacrificed. The effect on the protein synthesis in the liver was evaluated by determining the liver weight and protein content.

[2] = test system: fatty liver induced by carbon tetrachloride; assay: Therapeutic Effect on Fatty Liver Induced by Carbon Tetrachloride; assay type: in vivo, rats (SD strain); conditions: rats, 50 mg/kg p.o. for 7 days
Method: Carbon tetrachloride (1 ml/kg) was subcutaneously administered to rats (SD strain, .male., 38 week-old, n=5) for 4 days. Upon expiration of 3 days from the administration of carbon tetrachloride, Compound 6 was orally given successively for 7 days at the dose of 50 mg/kg. On the 8th day, the animals were sacrificed by exsanguination. The therapeutic effect was evaluated by examining the content of triglyceride in the liver and the concentration of apoprotein B in the plasma.

[3] = BSP 75 mg/kg i.v., retention in plasma after 30 min, read-out: % Prophylaxis BSP
[4] = plasma GPT activity, read-out: % Prophylaxis p-GPT

SMILES	inhibition in vivo at 50 mg/kg [1, 3] [%]	inhibition in vivo at 50 mg/kg [1, 4] [%]	Liver Damage Index [1]	toxicity (in words) (mice)	LD50 at 168 h (Acute Toxicity Test) [mg/kg]	other results
CC(=O)C(C(C)=O)=C1SC=CS1 [Compound 1, 3-(1,3-dithiol-2-ylidene)-2,4-pentanedione]	80	25	5.0	–	–	–
COc1ccc(C(=O)C(C(C)=O)=C2SC=CS2)cc1 [Compound 17, 2-(1,3-dithiol-2-ylidene)-1-(4-methoxyphenyl)-1,3-butanedione]	–	–	–	low toxicity	≥ 2000	–
CCOCC(=O)C(C(C)=O)=C1SC=CS1 [Compound 3, 3-(1,3-dithiol-2-ylidene)-1-ethoxy-2,4-pentanedione]	102	97	2.2	–	–	–
CC(=O)C(C(=O)c1cccc2ccccc12)=C1SC=CS1 [Compound 27, 2-(1,3-dithiol-2-ylidene)-1-(1-naphthyl)-1,3-butanedione]	–	–	–	low toxicity	≥ 2000	–
CC(C)OC(=O)C(C(=O)OC(C)C)=C1SC=CS1 [Malotilate]	–	–	–	–	–	effectiveness for the treatment of liver damages (in words) (liver damages): effective for the treatment of liver damages
CCCC(=O)C(C(=O)c1ccccc1)=C1SC=CS1 [Compound 7, 2-(1,3-dithiol-2-ylidene)-1-phenyl-1,3-hexanedione]	–	–	–	low toxicity	≥ 2000	–
CC(C)CC(=O)C(C(=O)c1ccccc1)=C1SC=CS1 [Compound 8, 2-(1,3-dithiol-2-ylidene)-5-methyl-1-phenyl-1,3-hexanedione]	–	–	–	low toxicity	≥ 2000	–
CC(=O)C(C(=O)C1CCCCC1)=C1SC=CS1 [Compound 5, 2-(1,3-dithiol-2-ylidene)-1-cyclohexyl-1,3-butanedione]	96	89	2.8	low toxicity	≥ 2000	–
CC(=O)C(C(=O)c1ccc(O)cc1)=C1SC=CS1 [Compound 45, 2-(1,3-dithiol-2-ylidene)-1-(4-hydroxyphenyl)-1,3-butanedione]	–	–	–	low toxicity	≥ 2000	–
CC1(C)CC(=O)C(=C2SC=CS2)C(=O)C1 [Compound 44, 2-(1,3-dithiol-2-ylidene)-5,5-dimethyl-1,3-cyclohexanedione]	111	95	1.2	–	–	–
CCCCCCCCCCCCCCCC(=O)C(C(=O)c1ccccc1)=C1SC=CS1 [Compound 10, 2-(1,3-dithiol-2-ylidene)-1-phenyl-1,3-octadecanedione]	78	42	2.0	–	–	–
CC1CCC(=O)C(=C2SC=CS2)C1=O (centres unmarked) [Compound 42, 2-(1,3-dithiol-2-ylidene)-4-methyl-1,3-cyclohexanedione]	60	29	6.0	–	–	–
CC(C)CC(=O)C(C(=O)CC(C)C)=C1SC=CS1 [Compound 4, 5-(1,3-dithiol-2-ylidene)-2,8-dimethyl-4,6-nonanedione]	108	100	1.0	low toxicity	≥ 2000	–
O=C1CCCC(=O)C1=C1SC=CS1 [Compound 41, 2-(1,3-dithiol-2-ylidene)-1,3-cyclohexanedione]	66	29	6.0	–	–	–
CC(C)C1CCC(=O)C(=C2SC=CS2)C1=O (centres unmarked) [Compound 43, 2-(1,3-dithiol-2-ylidene)-4-isopropyl-1,3-cyclohexanedione]	95	67	5.6	–	–	–
CCC(=O)C(C(C)=O)=C1SC=CS1 [Compound 2, 3-(1,3-dithiol-2-ylidene)-2,4-hexanedione]	85	72	1.4	–	–	–
CC(=O)C(C(=O)c1ccc2ccccc2c1)=C1SC=CS1 [Compound 28, 2-(1,3-dithiol-2-ylidene)-1-(2-naphthyl)-1,3-butanedione]	–	–	–	low toxicity	≥ 2000	–
CC(=O)C(C(=O)c1ccccc1)=C1SC=CS1 [Compound 6, 2-(1,3-dithiol-2-ylidene)-1-phenyl-1,3-butanedione]	–	–	–	low toxicity	≥ 2000	effect for stimulating the protein metabolic function of the liver (in words) (liver protein synthesis): substantial effect for stimulating the protein metabolic function of the liver; effect for curing the fatty liver (in words) [2]: significant effect for curing the fatty liver
CC(=O)C(C(=O)c1ccc(C)cc1)=C1SC=CS1 [Compound 12, 2-(1,3-dithiol-2-ylidene)-1-(4-methylphenyl)-1,3-butanedione]	–	–	–	low toxicity	≥ 2000	–
